Measured values from patent US12295937B2, “Psychoactive medicines and their use for treating psychiatric and neurological conditions and disorders” (Transcend Therapeutics, Inc., priority 2021, dated 2025).

Legend:
5HT2A receptor = biological target: T1, 5HT2A receptor (Homo sapiens, UniProt P28223); experiment: GPCRmax screen, agonist mode, 5HT2A; format: cell-based; conditions: 1 or 10 mM
T1 construct: host or cells: PathHunter cell lines

[1] = tested on: gene expression in amygdala, frontal cortex, hippocampus; experiment: RNA-sequencing of rat brain areas after a single dose; format: in vivo; conditions: for Genes differentially regulated vs. vehicle: 10 mg/kg IP, 8 hours
[2] = IMPACT-1 Part A open-label study in PTSD; format: in vivo, human; set-up: Anxiety Sub-Scale of MADRS, score reduction / Participants with absence of Reduced Sleep (MADRS): concentration or dose not given beside the values
Description: For each participant in Parts A and B, the study consists of: • Screening Period (Day −28 to Day −4): Informed consent, eligibility assessment, and enrolment of eligible participants. • Baseline/Preparatory Session (Day −3 to Day −1): Baseline assessments, confirmation of eligibility, and a preparatory psychoeducation session leading to enrolment confirmation. • Treatment Period (Day 1 to Day 24): Four weekly dose sessions, with associated remote sessions. The dose sessions last at least 8 hours, or until all effects (physical and psychological) have resolved (whichever is longer). Each dose session is followed by a safety phone call 1 day after dosing and efficacy assessments 2 days after dosing. Each dosing period is video recorded for quality and training purposes. The videos may be reviewed to ensure the Mentor is adhering to the Mentor training. • Follow-Up Period (Day 29 to Day 64): Follow-Up visits for safety and efficacy occur at 1, 2, 3 and 6 weeks post-final study drug administration. In addition, there are Mentor-Led Reflection Sessions 1, 2 and 3 weeks post-final study drug administration. Participants are contacted via telephone on Day 57 (±2 days) for Follow-Up. • Discontinuations: Participants who discontinue prematurely are asked to return for an extra visit to duplicate the 6-week end-of-study (EOS) visit.
Each dose was given as an initial dose, followed by a second dose 90 minutes later. During the dosing session, participants were accompanied by a trained Mentor who provided non-directive support. After the 4-week treatment period, participants attended follow-up visits at 1, 2, 3, and 6 weeks following the last dose. Safety was assessed via standard measures including adverse events. PTSD symptoms were assessed via Clinician-Administered PTSD Scale for DSM-5 (CAPS-5), depressive symptoms were assessed via Montgomery-Åsberg Depression Rating Scale (MADRS). Anti-anxiety efficacy was evaluated using the Anxiety Sub-Scale of MADRS, namely, questions (Items 3, 4, 5, 6) that address four anxiety items (inner tension, reduced sleep, reduced appetite, concentration difficulties) Changes from baseline were analyzed using a paired t-test p-values.
Methods: The IMPACT-1 study is a multi-center, two-part clinical trial. Part A has completed and was an open-label evaluation involving 14 participants with PTSD. Eligible participants are adults with severe PTSD (CAPS-5≥35) who had failed at least 1 prior treatment (pharmacotherapy and/or psychotherapy) for PTSD. […] Throughout each dosing session, participants were provided non-directive psychological support by a trained mental health practitioner. Following the 4-week treatment period, participants were followed for an additional 6 weeks to evaluate the durability of the therapeutic effect. PTSD symptom improvement was evaluated on the CAPS-5. Functioning was assessed via the 3 domains (school/work, family life, social life) of the Sheehan Disability Scale (SDS). Global improvement was measured by the CGI-I. Safety was assessed by monitoring adverse events, vital signs, and C-SSRS.
Following the 4-week treatment period, participants were followed for an additional 6 weeks to evaluate the durability of the therapeutic effect. Sleep-related improvements were evaluated on the CAPS-5 (including distressing dreams [item B2; scores range 0 to 4] and sleep disturbances [item E6; scores range 0 to 4]), the Pittsburgh Sleep Quality Index (PSQI; total scores range 0 to 21) and subscales, and the reduced sleep item of the Montgomery-Åsberg Depression Rating Scale (MADRS; scores range 0 to 6).

[3] = tested on: Sprague Dawley rat neurons; experiment: Neurite outgrowth in E18 cortical cultures; format: cell-based; conditions: 10 μM, applied day 1, fixed day 3-4
Description: Neuroplasticity is defined as changes in the structure, connections and function of neurons, including neurite outgrowth. […] E18 cortical cultures were harvested and plated on culture dishes. […] Neurite length was measured using ImageJ software.

serotonin transporter = serotonin transporter (Homo sapiens, UniProt P31645); conditions: cited from earlier work
serotonin transporter, sequence (P31645 whole entry): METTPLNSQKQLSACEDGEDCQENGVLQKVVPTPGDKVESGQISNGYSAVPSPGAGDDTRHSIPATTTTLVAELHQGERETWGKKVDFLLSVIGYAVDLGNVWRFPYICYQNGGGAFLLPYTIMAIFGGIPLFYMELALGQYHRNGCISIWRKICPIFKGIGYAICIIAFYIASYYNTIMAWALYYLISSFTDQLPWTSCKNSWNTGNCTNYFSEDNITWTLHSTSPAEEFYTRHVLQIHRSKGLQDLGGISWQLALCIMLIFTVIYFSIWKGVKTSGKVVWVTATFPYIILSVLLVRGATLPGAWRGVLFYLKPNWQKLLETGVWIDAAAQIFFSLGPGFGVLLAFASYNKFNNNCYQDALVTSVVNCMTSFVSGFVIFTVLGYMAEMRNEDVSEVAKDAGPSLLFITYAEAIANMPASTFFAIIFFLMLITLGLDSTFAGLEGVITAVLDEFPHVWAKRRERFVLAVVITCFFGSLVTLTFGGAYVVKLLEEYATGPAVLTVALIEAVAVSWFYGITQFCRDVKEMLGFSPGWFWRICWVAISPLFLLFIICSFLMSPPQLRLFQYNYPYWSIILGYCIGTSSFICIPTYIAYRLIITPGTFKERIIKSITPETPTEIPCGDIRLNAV

SERT = SERT (Rattus norvegicus, UniProt P31652); experiment: [3H]5-HT uptake inhibition in rat brain synaptosomes; conditions: read-out: Reuptake inhibition: IC50; rat brain synaptosomes
SERT, sequence (P31652 whole entry): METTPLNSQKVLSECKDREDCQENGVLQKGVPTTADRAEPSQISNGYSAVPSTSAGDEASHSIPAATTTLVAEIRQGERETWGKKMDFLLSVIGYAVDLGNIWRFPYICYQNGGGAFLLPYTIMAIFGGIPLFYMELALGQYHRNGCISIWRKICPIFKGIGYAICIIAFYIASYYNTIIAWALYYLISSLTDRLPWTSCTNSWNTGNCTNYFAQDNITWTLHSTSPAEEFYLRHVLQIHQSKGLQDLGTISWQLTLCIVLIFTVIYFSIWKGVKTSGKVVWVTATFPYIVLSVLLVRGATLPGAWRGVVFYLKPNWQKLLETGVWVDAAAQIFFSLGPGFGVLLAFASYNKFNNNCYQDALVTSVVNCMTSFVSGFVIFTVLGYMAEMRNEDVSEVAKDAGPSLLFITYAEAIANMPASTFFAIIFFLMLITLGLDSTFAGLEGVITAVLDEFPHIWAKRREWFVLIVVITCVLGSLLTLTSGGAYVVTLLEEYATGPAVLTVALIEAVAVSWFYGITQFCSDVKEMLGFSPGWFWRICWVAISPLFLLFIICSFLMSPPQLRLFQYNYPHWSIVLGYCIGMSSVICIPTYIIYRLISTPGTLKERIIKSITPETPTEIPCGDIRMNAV

T1 sequence (P28223 whole entry): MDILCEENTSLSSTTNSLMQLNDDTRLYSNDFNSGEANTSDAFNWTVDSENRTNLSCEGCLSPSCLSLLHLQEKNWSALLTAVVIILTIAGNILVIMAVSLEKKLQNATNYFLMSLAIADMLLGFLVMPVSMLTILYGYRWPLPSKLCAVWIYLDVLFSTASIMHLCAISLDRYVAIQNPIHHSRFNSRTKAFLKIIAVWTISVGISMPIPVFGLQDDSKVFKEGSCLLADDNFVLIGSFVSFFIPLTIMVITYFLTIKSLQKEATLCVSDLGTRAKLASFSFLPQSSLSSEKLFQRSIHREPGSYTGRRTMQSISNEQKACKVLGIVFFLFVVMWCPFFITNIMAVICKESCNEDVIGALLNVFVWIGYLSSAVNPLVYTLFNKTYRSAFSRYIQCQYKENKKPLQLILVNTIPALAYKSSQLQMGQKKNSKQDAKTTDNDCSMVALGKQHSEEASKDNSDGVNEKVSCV

With `CNC(C)C(=O)c1ccc2c(c1)OCO2` (stereo not drawn) [Methylone, 3,4-methylenedioxy-N-methylcathinone] the Agonist % activity (5HT2A receptor) was “no agonist or antagonist activity”, the “Genes regulated by methylone that are also regulated by MDMA” value ([1]; amygdala) was 87% and the “Genes differentially regulated vs. vehicle” value ([1]; amygdala, >25% change, padj<0.1) was 121 genes. The “Genes regulated by both treatments” value ([1]; frontal cortex) was 154 genes, the Genes significantly regulated ([1]; frontal cortex, 10 mg/kg IP (Example 27)) was 480 genes and the “Genes differentially regulated vs. vehicle” value ([1]; frontal cortex) was 471 genes. The “Genes differentially regulated vs. vehicle” value ([1]; hippocampus) was 12 genes, the CAPS-5 score decrease ([2]; 6 weeks after the last dose) was 36.2 points and the MADRS score decrease ([2]; 6 weeks after the last dose) was 21.4 points. The “Anxiety Sub-Scale of MADRS, score reduction” value ([2]; Day 3) was 20%, the CAPS-5 score decrease ([2]; Day 3) was 8.4 points and the MADRS score decrease ([2]; Day 3) was 8.2 points. The “Anxiety Sub-Scale of MADRS, score reduction” value ([2]; Day 10) was 43%, the CAPS-5 score decrease ([2]; Day 10) was 23.3 points and the MADRS score decrease ([2]; Day 10) was 16.2 points. The “Participants achieving remission (CAPS-5)” value ([2]; Day 10) was ~40%, the “Participants much or very much improved (CGI-I)” value ([2]; Day 10, two days after the 2nd dose) was ~70% and the “Anxiety Sub-Scale of MADRS, score reduction” value ([2]; Day 17) was 50%. For the same molecule, the “Anxiety Sub-Scale of MADRS, score reduction” value ([2]; Day 24) was 57%, the “Anxiety Sub-Scale of MADRS, score reduction” value ([2]; Day 29) was 56% and the “Anxiety Sub-Scale of MADRS, score reduction” value ([2]; Day 36) was 66%. The “Anxiety Sub-Scale of MADRS, score reduction” value ([2]; Day 43) was 64%, the “Anxiety Sub-Scale of MADRS, score reduction” value ([2]; Day 64) was 66% and the “SDS score, Family Life” value ([2]; Day 64) was 3.1 (3.45). The “SDS score, Mean Overall” value ([2]; Day 64) was 3.1 (3.12), the “SDS score, Social Life” value ([2]; Day 64) was 3.2 (3.39) and the “SDS score, Work/School” value ([2]; Day 64) was 3.3 (3.78). For the same molecule, the “TEAE: Bruxism” value ([2]; N = 14) was 14.3%, the “TEAE: Decreased appetite” value ([2]; N = 14) was 28.6% and the “TEAE: Dizziness” value ([2]; N = 14) was 14.3%. The “TEAE: Fatigue” value ([2]; N = 14) was 21.4%, the “TEAE: Headache” value ([2]; N = 14) was 42.9% and the “TEAE: Hyperhidrosis” value ([2]; N = 14) was 14.3%. The “TEAE: Influenza-like illness” value ([2]; N = 14) was 14.3%, the “TEAE: Insomnia” value ([2]; N = 14) was 14.3% and the “TEAE: Nasopharyngitis” value ([2]; N = 14) was 14.3%. The “TEAE: Non-cardiac chest pain” value ([2]; N = 14) was 21.4%, the “Drug-related serious adverse events” value ([2]; Part A) was “No drug-related SAEs occurred” and the “TEAE: Any AE” value ([2]; Safety Population N = 14) was 78.6%. For the same molecule, the “CAPS-5 mean change from baseline” value ([2]; after the first dose) was −8.4 points, the “SDS mean change from baseline” value ([2]; after the first dose) was −1.53 and the “Participants with absence of Distressing Dreams” value ([2]; after treatment) was 77%. The “Participants with absence of Reduced Sleep (MADRS)” value ([2]; after treatment) was 62%, the “Participants with absence of Sleep Disturbances” value ([2]; after treatment) was 62% and the “CAPS-5 Distressing Dreams (item B2) mean score” value ([2]; after treatment, baseline 2.2) was 0.38. The “CAPS-5 Sleep Disturbances (item E6) mean score” value ([2]; after treatment, baseline 3.3) was 0.92, the “MADRS Reduced Sleep mean score” value ([2]; after treatment, baseline 4.3) was 1.08 and the “PSQI total mean score” value ([2]; end of study) was 9.4. For the same molecule, the “Participants having mild or no impairment (SDS)” value ([2]; end of study) was > 50%, the “PSQI total score improvement” value ([2]; end of study (6 weeks after the last dose), baseline 13.5) was −4.0 points and the “CAPS-5 mean change from baseline” value ([2]; end of study visit (6 weeks after the last dose)) was −36.2 points. For the same molecule, the “Change in number of days lost” value ([2]; end of the 4-week treatment period, baseline 2.6) was -2.0 days, the “Change in number of days underproductive” value ([2]; end of the 4-week treatment period, baseline 4.7) was -3.3 days and the “Participants achieving remission (CAPS-5)” value ([2]; end of the study) was 61.5%. For the same molecule, the “Participants much or very much improved (CGI-I)” value ([2]; end of the study) was “all participants”, the “Patient-reported chronic pain after methylone” value ([2]; one subject, knees, before 7-8 and 8-9 out of 10) was 2-3 out of 10 and the “SDS mean change from baseline” value ([2]; through the 6-week follow-up period) was −4.26. For the same molecule, the “Increase in neurite length vs. vehicle” value [3] was ~2 fold, the “Affinity for the serotonin transporter, times lower compared to MDMA” value (serotonin transporter) was 3 × and the IC50 (SERT) was 430 nM.
